Assay results taken from ChEMBL document CHEMBL3808329, “Increase of rutin antioxidant activity by generating Maillard reaction products with lysine” (Bioorg Med Chem Lett, 2016).
Activity calls are given as the source filed them. The calls are words filed in the database; no cut-off is given here.

What was measured:
[1] = Antioxidant activity assessed as DPPH scavenging activity at 60 ug/ml and 120 degC after 4 hrs by spectrophotometric method; format: physicochemical
[2] = Retention time of compound by HPLC method; format: physicochemical
[3] = Metal chelating activity assessed as Cu2+ reducing activity at 120 degC after 4 hrs in presence of lysine; format: physicochemical
[4] = Antioxidant activity assessed as DPPH scavenging activity at 20 to 100 ug/ml after 4 hrs in presence of lysine by spectrophotometric method; format: physicochemical
[5] = system: HepG2; assay: Antioxidant activity in human HepG2 cells assessed as reduction in Cu2+ induced oxidative stress at 50 to 200 ug/ml preincubated for 30 mins at 120 degC using DCFH-DA in presence of lysine by fluorescence assay; format: functional, cell-based
[6] = Drug metabolism assessed as increase in total phenolics at 120 degC after 4 hrs in presence of lysine by Folin-Ciocalteu method; format: physicochemical
[7] = Antioxidant activity assessed as DPPH scavenging activity at 20 to 100 ug/ml and 120 degC after 4 hrs by spectrophotometric method; format: physicochemical
[8] = system: HepG2; assay: Antioxidant activity in human HepG2 cells assessed as reduction in Cu2+ induced oxidative stress at 50 to 200 ug/ml preincubated for 30 mins in presence of lysine using DCFH-DA by fluorescence assay; format: functional, cell-based
[9] = system: HepG2; assay: Antioxidant activity in human HepG2 cells assessed as reduction in Cu2+ induced oxidative stress at 50 to 200 ug/ml preincubated for 30 mins using DCFH-DA by fluorescence assay; format: functional, cell-based
[10] = system: HepG2; assay: Antioxidant activity in human HepG2 cells assessed as increase in Cu/Zn SOD activity at 200 ug/ml at 120 degC after 4 hrs relative to control; format: functional, cell-based
[11] = system: HepG2; assay: Induction of Cu/Zn SOD gene expression in human HepG2 cells at 100 to 300 ug/ml at 120 degC after 4 hrs in presence of lysine by western blot analysis; format: functional, cell-based
[12] = Antioxidant activity assessed as DPPH scavenging activity at 60 to 100 ug/ml and 120 degC after 4 hrs in presence of lysine by spectrophotometric method; format: physicochemical
[13] = system: HepG2; assay: Antioxidant activity in human HepG2 cells assessed as increase in Cu/Zn SOD activity at 200 ug/ml in presence of lysine at 120 degC after 4 hrs relative to control; format: functional, cell-based

Row | SMILES | Activity [1] | Activity [3] | Activity [4] | Drug metabolism [6] | Activity [7] | Activity [12] | Retention_time [2] | Activity [5] | inhibition [8] | inhibition [9] | Activity [10] | Activity [11] | Activity [13]
1 | NCCCC[C@H](N)C(=O)O [LYSINE] |  |  |  |  |  |  | 2.01 min |  |  |  |  |  | 
2 | C[C@@H]1O[C@@H](OC[C@H]2O[C@@H](Oc3c(-c4ccc(O)c(O)c4)oc4cc(O)cc(O)c4c3=O)[C@H](O)[C@@H](O)[C@@H]2O)[C@H](O)[C@H](O)[C@H]1O [RUTIN] |  | Active | Dose-dependent effect | metabolite_detected |  | Active | 8.94 min | Active | inactive | inactive | Active | Active | Active

Continued, in another order:

Row | Activity [1] | Activity [3] | Activity [4] | Drug metabolism [6] | Activity [7] | Activity [12] | SMILES | Retention_time [2] | Activity [5] | inhibition [8] | inhibition [9] | Activity [10] | Activity [11] | Activity [13]
3 | 90.6% |  |  |  |  |  | O=C1O[C@H]([C@@H](O)CO)C(O)=C1O [ASCORBIC ACID] |  |  |  |  |  |  | 
4 |  | Active | Active | metabolite_detected | Active |  | C[C@@H]1O[C@@H](N[C@@H](CCCCN)C(=O)O)[C@H](O)[C@H](O)[C@H]1O |  | Active |  |  |  |  | 
5 |  | Active | Active | metabolite_detected | Active |  | NCCCC[C@H](N[C@@H]1O[C@H](CO)[C@@H](O)[C@H](O)[C@H]1O)C(=O)O |  | Active |  |  |  |  | 
